Results from the supplement of paper PMC11061612.

Columns and labels:
[1] = compound: C=CCn1c(=O)c2cnc(Nc3ccc(N4CCN(C)CC4)cc3)nc2n1-c1cccc(C(C)(C)O)n1 [AZD1775]; details: max 3 µM
Method in brief: (§1)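 Plates with 1536 wells received cancer cell lines in 7.5 μl of DMEM/F12 or RPMI containing 10% FBS. After 24 hours at 37°C and 5% CO2, cells were dosed for 72 hours with final DMSO typically 0.2%, and viability was read by CellTiter-Glo 2.0 luminescence scaled between blank-well and DMSO-well means. The single-agent IC50 was taken from a logistic fit of the dose responses made with a non-linear mixed effects model, that logistic curve having two parameters.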

[2] = compound: C[C@@H]1COCCN1C2=NC(=NC(=C2)C3(CC3)[S@](=N)(=O)C)C4=C5C=CNC5=NC=C4 [AZD6738]; details: max 10 µM
Method in brief: as §1

[3] = compound: Cc1nc(-c2cn3c(n2)-c2ccc(-c4cnn(C(C)(C)C(N)=O)c4)cc2OCC3)n(C(C)C)n1 [Taselisib]; details: max 10 µM
Method in brief: as §1

[4] = compound: Nc1ccn([C@@H]2O[C@H](CO)[C@@H](O)C2(F)F)c(=O)n1 [Gemcitabine]; details: max 0.3 µM
Method in brief: as §1

[5] = compound: CC(=O)O[C@H]1C(=O)[C@@]2(C)[C@H]([C@H](OC(=O)c3ccccc3)[C@]3(O)C[C@H](OC(=O)[C@H](O)[C@@H](NC(=O)c4ccccc4)c4ccccc4)C(C)=C1C3(C)C)[C@]1(OC(C)=O)CO[C@@H]1C[C@@H]2O [Paclitaxel]; details: max 3 µM
Method in brief: as §1

[6] = compound: Cc1cc2ncnn2cc1Nc1ncc2c(n1)n(C1CCOCC1)c(=O)n2C [AZD7648]; details: max 10 µM
Method in brief: as §1

[7] = compound: CN(CC[C@H](CSC1=CC=CC=C1)NC2=C(C=C(C=C2)S(=O)(=O)NC(=O)C3=CC=C(C=C3)N4CCC(CC4)[C@H](C5=CC=CC=C5C6=CC=C(C=C6)Cl)O)S(=O)(=O)C(F)(F)F)CCO [AZD4320]; details: max 1 µM
Method in brief: as §1

[8] = compound: CC1(C)CCC(CN2CCN(c3ccc(C(=O)NS(=O)(=O)c4ccc(NCC5CCOCC5)c([N+](=O)[O-])c4)c(Oc4cnc5[nH]ccc5c4)c3)CC2)=C(c2ccc(Cl)cc2)C1 [Venetoclax]; details: max 1 µM
Method in brief: as §1

[9] = compound: C1CC(C1)(C(=O)[O-])C(=O)[O-].N.N.[Pt+2] [Carboplatin]; details: max 10 µM
Method in brief: as §1

[10] = compound: N#Cc1cnc(Nc2cc(NC[C@H]3CNCCO3)c(C(F)(F)F)cn2)cn1 [SRA737]; details: max 10 µM
Method in brief: as §1

[11] = compound: Cn1cnc2c(F)c(Nc3ccc(Br)cc3Cl)c(C(=O)NOCCO)cc21 [Selumetinib]; details: max 10 µM
Method in brief: as §1

[12] = compound: Cc1c2c(nn1C)CSCc1cc(n(C)n1)CSc1cc(c3ccccc3c1)OCCCc1c(C(=O)O)n(C)c3c-2c(Cl)ccc13 [AZD5991]; details: max 1 µM
Method in brief: as §1

[13] = compound: CN(C)CCCOc1ccc(-c2ccc3ncc4c(c3c2)n(C2CCOCC2)c(=O)n4C)cn1 [AZD0156]; details: max 3 µM
Method in brief: as §1

[14] = compound: CC(=O)c1c(C)c2cnc(Nc3ccc(N4CCNCC4)cn3)nc2n(C2CCCC2)c1=O [Palbociclib]; details: max 10 µM
Method in brief: as §1

[15] = compound: COc1cc(Nc2ncc3c(n2)-c2ccc(Cl)cc2C(c2c(F)cccc2OC)=NC3)ccc1C(=O)O [Alisertib]; details: max 10 µM
Method in brief: as §1

[16] = compound: COc1cc2ncnc(Nc3ccc(F)c(Cl)c3)c2cc1OCCCN1CCOCC1 [Gefitinib]; details: max 10 µM
Method in brief: as §1

[17] = compound: CC1=C(C(=CC=C1)Cl)NC(=O)C2=CN=C(S2)NC3=CC(=NC(=N3)C)N4CCN(CC4)CCO [Dasatinib]; details: max 2 µM
Method in brief: as §1

[18] = compound: COc1cccc2c1C(=O)c1c(O)c3c(c(O)c1C2=O)C[C@@](O)(C(=O)CO)C[C@@H]3O[C@H]1C[C@H](N)[C@H](O)[C@H](C)O1 [Doxorubicin]; details: max 1 µM
Method in brief: as §1

[19] = compound: NC1(c2ccc(-c3nc4ccn5c(=O)[nH]nc5c4cc3-c3ccccc3)cc2)CCC1 [MK-2206]; details: max 10 µM
Method in brief: as §1

[20] = compound: C[C@@H](Oc1cc(-c2cnn(C3CCNCC3)c2)cnc1N)c1c(Cl)ccc(F)c1Cl [Crizotinib]; details: max 10 µM
Method in brief: as §1

[21] = compound: CCc1c2c(nc3ccc(O)cc13)-c1cc3c(c(=O)n1C2)COC(=O)[C@]3(O)CC [SN-38]; details: max 0.3 µM
Method in brief: as §1

[22] = compound: C[C@@H](c1ccc2nccn2c1)n1nnc2ncc(-c3cnn(C)c3)nc21 [Savolitinib]; details: max 1 µM
Method in brief: as §1

[23] = compound: CS(=O)(=O)CCNCc1ccc(-c2ccc3ncnc(Nc4ccc(OCc5cccc(F)c5)c(Cl)c4)c3c2)o1 [Lapatinib]; details: max 10 µM
Method in brief: as §1

[24] = compound: C[C@@H](Nc1cc(F)cc(F)c1)c1cc(C(=O)N(C)C)cc2c(=O)cc(N3CCOCC3)oc12 [AZD8186]; details: max 10 µM
Method in brief: as §1

[25] = compound: CC(C)n1c(=O)n(C)c2cnc3cc(F)c(-c4ccc(OCCCN5CCCCC5)nc4)cc3c21 [AZD1390]; details: max 0.3 µM
Method in brief: as §1

[26] = compound: CCN(CCO)CCCOc1ccc2c(Nc3cc(CC(=O)Nc4cccc(F)c4)[nH]n3)ncnc2c1 [AZD2811]; details: max 1 µM
Method in brief: as §1

[27] = compound: O=C(Nc1ccc2[nH]nc(-c3ccncc3)c2c1)[C@@H]1CCN(CC(=O)N2CCN(c3ccc(-c4ncccn4)cc3)CC2)C1; details: max 5 µM
Method in brief: as §1

[28] = compound: C1CN(CCC1(C(=O)N[C@@H](CCO)C2=CC=C(C=C2)Cl)N)C3=NC=NC4=C3C=CN4 [AZD5363]; details: max 10 µM
Method in brief: as §1

[29] = compound: COc1nnc2ccc(N3CCC(c4ccc(OCCN5CCN(C)C(=O)[C@H]5C)cc4)CC3)nn12 [AZD5153]; details: max 1 µM
Method in brief: as §1

[30] = compound: O=c1[nH]cc(F)c(=O)[nH]1 [5-Fluorouracil]; details: max 20 µM
Method in brief: as §1

[31] = compound: CC1=CN2[C@@H](C1)C=NC3=CC(=C(C=C3C2=O)OC)OCCCCCOC4=C(C=C5C(=C4)N=C[C@@H]6CC(=CN6C5=O)C)OC [SG3199]; details: max 0.001 µM
Method in brief: as §1

[32] = compound: COc1cc([C@@H]2c3cc4c(cc3[C@@H](O[C@@H]3O[C@@H]5CO[C@@H](C)O[C@H]5[C@H](O)[C@H]3O)[C@H]3COC(=O)[C@H]23)OCO4)cc(OC)c1O [Etoposide]; details: max 10 µM
Method in brief: as §1

[33] = compound: COc1cccc(OCCCN)c1-c1cc(Nc2cnc(C#N)cn2)n[nH]1 [Prexasertib]; details: max 1 µM
Method in brief: as §1

[34] = compound: O=C(c1cc(Cc2n[nH]c(=O)c3ccccc23)ccc1F)N1CCN(C(=O)C2CC2)CC1 [Olaparib]; details: max 10 µM
Method in brief: as §1

[35] = compound: CC(=O)Nc1cccc(-n2c(=O)n(C3CC3)c(=O)c3c(Nc4ccc(I)cc4F)n(C)c(=O)c(C)c32)c1 [Trametinib]; details: max 1 µM
Method in brief: as §1

Cell Line | IC50, cell viability 72 h [1] [µM] | IC50, cell viability 72 h [2] [µM] | IC50, cell viability 72 h [3] [µM] | IC50, cell viability 72 h [4] [µM] | IC50, cell viability 72 h [5] [µM] | IC50, cell viability 72 h [6] [µM] | IC50, cell viability 72 h [7] [µM] | IC50, cell viability 72 h [8] [µM] | IC50, cell viability 72 h [9] [µM] | IC50, cell viability 72 h [10] [µM] | IC50, cell viability 72 h [11] [µM] | IC50, cell viability 72 h [12] [µM] | IC50, cell viability 72 h [13] [µM] | IC50, cell viability 72 h [14] [µM] | IC50, cell viability 72 h [15] [µM] | IC50, cell viability 72 h [16] [µM] | IC50, cell viability 72 h [17] [µM] | IC50, cell viability 72 h [18] [µM] | IC50, cell viability 72 h [19] [µM] | IC50, cell viability 72 h [20] [µM] | IC50, cell viability 72 h [21] [µM] | IC50, cell viability 72 h [22] [µM] | IC50, cell viability 72 h [23] [µM] | IC50, cell viability 72 h [24] [µM] | IC50, cell viability 72 h [25] [µM] | IC50, cell viability 72 h [26] [µM] | IC50, cell viability 72 h [27] [µM] | IC50, cell viability 72 h [28] [µM] | IC50, cell viability 72 h [29] [µM] | IC50, cell viability 72 h [30] [µM] | IC50, cell viability 72 h [31] [µM] | IC50, cell viability 72 h [32] [µM] | IC50, cell viability 72 h [33] [µM] | IC50, cell viability 72 h [34] [µM] | IC50, cell viability 72 h [35] [µM]
CAL-62 (Thyroid Gland Carcinoma) | 1.32 | 5.21 | > 10 | 0.0355 | 0.00733 | > 10 | > 1 | > 1 | > 10 | > 10 | > 10 | > 1 | > 3 | > 10 | > 10 | > 10 | 0.784 | 0.372 | > 10 | > 10 | 0.00459 | > 1 | > 10 | > 10 | > 0.3 | > 1 | 4.09 | > 10 | 0.127 | > 20 | > 0.001 | 3.42 | 0.158 | > 10 | 0.551
COLO-680N (Esophageal Squamous Cell Carcinoma) | > 3 | > 10 | > 10 | > 0.3 | 1.3 | > 10 | > 1 | > 1 | > 10 | > 10 | > 10 | > 1 | > 3 | > 10 | > 10 | > 10 | > 2 | > 1 | > 10 | > 10 | > 0.3 | > 1 | > 10 | > 10 | > 0.3 | > 1 | > 5 | > 10 | > 1 | > 20 | > 0.001 | > 10 | > 1 | > 10 | > 1
HSC-39 (Gastric Carcinoma) | 0.398 | 0.538 | 0.791 | 0.0117 | 0.00455 | > 10 | > 1 | 0.561 | > 10 | 0.519 | > 10 | 0.0556 | > 3 | 4.37 | < 0.01 | > 10 | > 2 | 0.16 | > 10 | 2.06 | 0.00739 | > 1 | 5.62 | > 10 | > 0.3 | 0.15 | 2.88 | > 10 | 0.322 | 16.6 | > 0.001 | 1.23 | 0.00486 | > 10 | 0.423
IST-MES1 (Mesothelioma) | > 3 | > 10 | > 10 | 0.181 | 0.504 | > 10 | > 1 | > 1 | > 10 | > 10 | > 10 | > 1 | > 3 | > 10 | > 10 | > 10 | 0.243 | 0.43 | > 10 | > 10 | 0.0614 | > 1 | > 10 | > 10 | > 0.3 | > 1 | > 5 | > 10 | 0.246 | > 20 | > 0.001 | > 10 | > 1 | > 10 | > 1
L-1236 (Hodgkin's Lymphoma) | 0.0854 | 3.96 | 9.38 | 0.0177 | 0.0362 | > 10 | 0.0895 | 0.861 | > 10 | 0.969 | > 10 | > 1 | > 3 | 6.34 | > 10 | > 10 | > 2 | > 1 | 8.4 | 1.94 | 0.0624 | > 1 | > 10 | 2.08 | > 0.3 | > 1 | > 5 | 2.81 | 0.0132 | > 20 | > 0.001 | 3.35 | 0.0327 | > 10 | > 1
